Patent US20150329821A1, “METHODS OF DIFFERENTIATING STEM CELLS INTO ONE OR MORE CELL LINEAGES” (AGENCY FOR SCIENCE, TECHNOLOGY AND RESEARCH, priority 2012, published 2015)

B1: noggin: inhibitor of BMP signaling (protein, UniProt Q13253 28-232, looked up)
Noggin: QHYLHIRPAPSDNLPLVDLIEHPDPIFDPKEKDLNETLLRSLLGGHYDPGFMATSPPEDRPGGGGGAAGGAEDLAELDQLLRQRPSGAMPSEIKGLEFSEGLAQGKKQRLSKKLRRKLQMWLWSQTFCPVLYAWNDLGSRFWPRYVKVGSCFSKRSCSVPEGMVCKPSKSVHLTVLRWRCQRRGGQRCGWIPIQYPIISECKCSC
B2: Dkk1: inhibitor of Wnt signaling (protein, UniProt O94907 32-266, looked up)
Dickkopf-related protein 1: TLNSVLNSNAIKNLPPPLGGAAGHPGSAVSAAPGILYPGGNKYQTIDNYQPYPCAEDEECGTDEYCASPTRGGDAGVQICLACRKRRKRCMRHAMCCPGNYCKNGICVSSDQNHFRGEIEETITESFGNDHSTLDGYSRRTTLSSKMYHTKGQEGSVCLRSSDCASGLCCARHFWSKICKPVLKEGQVCTKHRRKGSHGLEIFQRCYCGEGLSCRIQKDHHQASNSSRLHTCQRH

System: hESC
Experiment: qPCR of DE vs. mesoderm emergence from primitive streak under signaling perturbations
Format: cell-based, human
Conditions: for downregulation of MESP1: neutralizing endogenous BMP on days 2-3, PS to DE, 2 hESC lines; for mesoderm formation from PS: inhibiting endogenous Wnt on days 2-3
Protocol: RNA was harvested from adherent cells grown in individual wells of a 12-well plate by the addition of 350 μL of RLT Buffer for several minutes. RNA could be indefinitely frozen at −80° C. or could be directly extracted. RNA extraction was conducted with the RNeasy Micro Kit (Qiagen) generally as per the manufacturer's recommendations with an intermediate 1 hour on-column DNase digestion to eliminate residual genomic DNA, and RNA was finally eluted from the column in 30 μL H20. After assessment of total RNA concentration, generally 100-500 ng of total RNA was used for reverse transcription (Superscript Reverse Transcriptase, Invitrogen) as per the manufacturer's instructions. Finally, cDNA was diluted 1:30 in H2O and was used for qPCR in 384-well high-throughput format. For each individual qPCR reaction per′ well (10 μL), 5 μL of 2×SYBR Green Master Mix (Applied Biosystems) was used and combined with 0.4 μL of combined forward and reverse primer mix (at 10 μM of forward+reverse primers in the combined primer mix). qPCR was conducted for 40 cycles at Tm=60° C., and a dissociation curve was generated at the end of the reaction to ensure only one product was specifically amplified per primer pair. qPCR analysis was conducted by the ddCt method: for each cDNA sample, the expression of experimental genes was internally normalized to the expression of a human housekeeping gene (Pbgd) for that same cDNA sample, and afterwards, expression of experimental genes could be determined between different cDNA samples. For all differentiated populations, expression of experimental genes was compared to undifferentiated hESCs plated for the same experimental set to ensure that any perceived increase or decrease of gene expression was significant relative to the ab initio expression of that gene in undifferentiated hESCs. Thus, for all qPCR data both in matrices […] and histograms (FIG. 39-65) all gene expression is normalized such that the level of gene expression (e.g., for SOX17) in hESCs=1. For each experiment, at least two distinct wells per, condition were harvested, and for each well, 2 or 3 technical replicates were performed for each gene whose expression was analyzed by qPCR.
To deduce the developmental signaling logic underlying cell-fate bifurcations, signaling-perturbation matrices (FIG. 1-23) were generated to visually represent qPCR data of developmental gene expression (rows) in response to various signaling-perturbations (columns). Signaling-perturbation matrices were generated using GenePattern's HeatMapViewer module (http://genepattern.broadinstitute.org), using as input data matrices of signaling-perturbation qPCR responses that were normalized to levels of developmental gene expression in undifferentiated hESC as described above. In HeatMapViewer, gene expression values are linearly transformed into colors (as indicated by the color legend below each matrix) in which no color represents low gene expression, stronger color represents higher gene expression and the strongest shade of color is equivalent to the highest level of the gene that was expressed in all signaling-perturbations tested in that matrix.

Molecule | downregulation of MESP1 | mesoderm formation from PS
Cl.c1ccc2c(-c3cnn4cc(-c5ccc(N6CCNCC6)cc5)cnc34)ccnc2c1 [DM3189/LDN-193189, 4-(6-(4-(piperazin-1-yl)phenyl)pyrazolo[1,5-a]pyrimidin-3-yl)quinoline hydrochloride] | ~3000 fold | –
Cc1ccc2nc(NC(=O)CSc3nc4c(c(=O)n3-c3ccccc3)SCC4)sc2c1 [IWP2, N-(6-Methyl-2-benzothiazolyl)-2-[(3,4,6,7-tetrahydro-4-oxo-3-phenylthieno[3,2-d]pyrimidin-2-yl)thio]-acetamide] | – | blocked mesoderm formation
O=c1[nH]c(-c2ccc(C(F)(F)F)cc2)nc2c1CSCC2 [XAV939, 3,5,7,8-Tetrahydro-2-[4-(trifluoromethyl)phenyl]-4H-thiopyrano[4,3-d]pyrimidin-4-one] | – | blocked mesoderm formation
B1 | ~3000 fold | –
B2 | – | blocked mesoderm formation
